pEC50: −log10 of the molar value. Converted amounts (≈) assume the structure as drawn. The source made the active and inactive calls. No cut-off for these calls is given here.
Assays:
[1] = target: T1, Relaxin receptor 1 (Homo sapiens, UniProt Q9HBX9); format: functional, cell-based, HEK293; details: for pEC50: read-out: EC50; for EC50: hek293
T1 sequence (Q9HBX9 whole entry): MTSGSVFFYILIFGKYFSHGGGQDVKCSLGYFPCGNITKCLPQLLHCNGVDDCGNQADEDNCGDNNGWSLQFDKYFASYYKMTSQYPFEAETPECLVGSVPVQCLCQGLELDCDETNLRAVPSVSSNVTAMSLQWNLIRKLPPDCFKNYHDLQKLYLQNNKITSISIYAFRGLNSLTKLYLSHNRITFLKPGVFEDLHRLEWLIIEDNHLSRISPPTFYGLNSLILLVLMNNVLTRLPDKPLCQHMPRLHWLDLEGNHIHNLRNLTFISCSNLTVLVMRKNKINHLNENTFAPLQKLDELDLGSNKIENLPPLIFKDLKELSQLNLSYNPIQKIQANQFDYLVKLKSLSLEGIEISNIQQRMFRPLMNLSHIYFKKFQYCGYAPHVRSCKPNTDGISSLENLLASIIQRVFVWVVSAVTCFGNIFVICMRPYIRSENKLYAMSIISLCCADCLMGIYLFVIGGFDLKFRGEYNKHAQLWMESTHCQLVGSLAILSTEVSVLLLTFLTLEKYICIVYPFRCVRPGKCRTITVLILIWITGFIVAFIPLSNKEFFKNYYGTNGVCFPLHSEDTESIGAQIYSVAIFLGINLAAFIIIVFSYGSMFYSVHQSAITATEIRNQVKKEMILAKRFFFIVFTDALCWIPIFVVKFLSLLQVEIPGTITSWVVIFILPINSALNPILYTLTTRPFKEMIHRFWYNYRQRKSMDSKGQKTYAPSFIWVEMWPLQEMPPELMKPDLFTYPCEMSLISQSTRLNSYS

[2] = target: T2, Relaxin receptor 1 (Homo sapiens) (UniProt Q9HBX9); format: functional, cell-based; details: HEK293
T2 sequence (whole entry): T1 sequence (Q9HBX9 whole entry)

[3] = tested on: HEK293; assay: Cytotoxicity against HEK293 cells assessed as reduction in cell viability by measuring ATP level by ATPlite assay; format: cell-based; details: Homo sapiens
[4] = Aqueous kinetic solubility of the compound in PBS by shake-flask method; format: physicochemical; details: for solubility kinetic: PBS, read-out: Kinetic_solubility
[5] = rat, microsomes
Description: Half life in rat liver microsomes

[6] = Metabolic stability in mouse liver microsomes assessed as parent compound remaining after 60 mins; format: ADME, microsome; details: read-out: Stability

SMILES | pEC50 [1] | Efficacy [2] | also measured
O=C(Nc1cccc(C(F)(F)F)c1)c1ccccc1NC(=O)C1CCC1 | 5.53 | 75% | 
O=C(Nc1ccccc1C(=O)Nc1cccc(C(F)(F)F)c1)c1ccccc1Cl | 5.43 | 92% | 
CCCOc1ccccc1C(=O)Nc1ccccc1C(=O)Nc1cccc(S(=O)(=O)C(F)(F)F)c1 | 7.28 | 98% | pEC50 [3]: 5.03; solubility kinetic [4]: 17 µM (≈ 8.61 µg/mL); t1/2 [5]: 26.8 min
CSc1cccc(NC(=O)c2ccccc2NC(=O)C2CCCCC2)c1 | 5.28 | 84% | 
COc1cccc(C(=O)Nc2ccccc2C(=O)Nc2cccc(C(F)(F)F)c2)c1 | 5.73 | 94% | 
CCCCOc1ccccc1C(=O)Nc1ccccc1C(=O)Nc1cccc(S(=O)(=O)C(F)(F)F)c1 | 7.33 | 98% | solubility kinetic [4]: 5.3 µM (≈ 2.76 µg/mL); t1/2 [5]: 19.5 min
O=C(Nc1cccc(F)c1)c1ccccc1NC(=O)C1CCCCC1 | 4.88 | 81% | 
O=C(Nc1ccccc1C(=O)Nc1cccc(C(F)(F)F)c1)c1cccnc1 | 5.23 | 95% | 
O=C(Nc1cccc(C(F)(F)F)c1)c1ccccc1NC(=O)C1CCCC1 | 5.63 | 88% | 
CC(C)Oc1ccccc1C(=O)Nc1ccccc1C(=O)Nc1cccc(C(F)(F)F)c1 | 6.33 | 99% | 
O=C(Nc1cccc(C(F)(F)F)c1)c1ccccc1NC(=O)C1CC1 | 5.08 | 79% | 
CCOc1ccccc1C(=O)Nc1cnccc1C(=O)Nc1cccc(S(=O)(=O)C(F)(F)F)c1 | 5.53 | 99% | solubility kinetic [4]: < 1000 µM
COCCOc1ccccc1C(=O)Nc1ccccc1C(=O)Nc1cccc(C(F)(F)F)c1 | 6.13 | 98% | 
COc1ccccc1C(=O)Nc1ccccc1C(=O)Nc1cccc(S(=O)(=O)C(F)(F)F)c1 | 6.73 | 99% | t1/2 [5]: > 30 min
Cc1ccccc1C(=O)Nc1ccccc1C(=O)Nc1cccc(C(F)(F)F)c1 | 5.38 | 90% | 
O=C(Nc1ccccc1C(=O)Nc1ccccc1C(=O)NCc1ccco1)c1ccco1 |  |  | Kinetic_solubility ([4]; buffer): 3.7 µM; remaining at 1 h [6]: 2%
O=C(NCc1ccco1)c1ccccc1NC(=O)c1ccccc1NC(=O)C1CCCCC1 | 5.03 | 45% | 
COCCNc1ccccc1C(=O)Nc1cccc(C(F)(F)F)c1 | 4.23 | 63% | 
O=C(Nc1cccc(C(F)(F)F)c1)c1ccccc1NC(=O)C1CCCCC1 | 5.73 | 92% | remaining at 1 h [6]: 70%
O=C(Nc1cccc([N+](=O)[O-])c1)c1ccccc1NC(=O)C1CCCCC1 | 5.23 | 93% | 
CCOc1ccccc1C(=O)Nc1sccc1C(=O)Nc1cccc(S(=O)(=O)C(F)(F)F)c1 | 5.63 | 95% | 
COc1ccccc1C(=O)Nc1ccccc1C(=O)Nc1cccc(C(F)(F)F)c1 | 6.48 | 99% | 
CN(C)CCOc1ccccc1C(=O)Nc1ccccc1C(=O)Nc1cccc(C(F)(F)F)c1 | 5.43 | 92% | 
O=C(Nc1cccc(S(=O)(=O)C(F)(F)F)c1)c1ccccc1NC(=O)c1ccccc1OCC(F)(F)F | 7.17 | 97% | t1/2 [5]: > 30 min
CCOc1ccccc1C(=O)Nc1cccnc1C(=O)Nc1cccc(S(=O)(=O)C(F)(F)F)c1 | 5.33 | 73% | solubility kinetic [4]: < 1000 µM; t1/2 [5]: > 30 min
O=C(Nc1cccc(C(F)(F)F)c1)c1ccccc1NC(=O)c1ccccc1OC(F)(F)F | 5.93 | 96% | 
CCOc1ccccc1S(=O)(=O)Nc1ccccc1C(=O)Nc1cccc(S(=O)(=O)C(F)(F)F)c1 |  | inactive | EC50 [1]: Not Active
CCOc1ccccc1C(=O)Nc1ccncc1C(=O)Nc1cccc(S(=O)(=O)C(F)(F)F)c1 | 6.13 | 97% | t1/2 [5]: > 30 min

SMILES | pEC50 [1] | Efficacy [2] | also measured
CCOc1ccccc1C(=O)Nc1ccccc1C(=O)Nc1cccc(S(=O)(=O)C(F)(F)F)c1 |  |  | t1/2 [5]: > 30 min
COc1ccccc1C(=O)N(C)c1ccccc1C(=O)Nc1cccc(C(F)(F)F)c1 |  | inactive | EC50 [1]: Not Active
O=C(Nc1ccc(C(F)(F)F)cc1)c1ccccc1NC(=O)C1CCCCC1 | 4.03 | 46% | 
COc1cccc(OC)c1C(=O)Nc1ccccc1C(=O)Nc1cccc(C(F)(F)F)c1 | 5.13 | 42% | 
O=C(Nc1ccccc1C(=O)Nc1cccc(C(F)(F)F)c1)c1ccccc1 | 5.88 | 64% | 
O=C(Nc1cccc(SC(F)(F)F)c1)c1ccccc1NC(=O)C1CCCCC1 | 5.73 | 90% | 
CCOc1ccccc1C(=O)Nc1ccccc1C(=O)Nc1cccc(C(F)(F)F)c1 | 6.58 | 94% | 
O=C(Nc1cccc(Br)c1)c1ccccc1NC(=O)C1CCCCC1 | 5.58 | 91% | 
CC(C)(C)c1cccc(NC(=O)c2ccccc2NC(=O)C2CCCCC2)c1 | 5.58 | 70% | 
COc1ccccc1C(=O)Nc1cccc(C(=O)Nc2cccc(C(F)(F)F)c2)c1 |  | inactive | EC50 [1]: Not Active
COc1ccc(C(=O)Nc2ccccc2C(=O)Nc2cccc(C(F)(F)F)c2)cc1 | 5.03 | 71% | 
O=C(Nc1cccc(-c2cccc(C(F)(F)F)c2)c1)c1ccccc1NC(=O)C1CCCCC1 |  | inactive | EC50 [1]: Not Active
O=C(Cc1ccccc1)Nc1ccccc1C(=O)Nc1cccc(C(F)(F)F)c1 | 5.08 | 86% | 
Cc1ccc(NC(=O)c2ccccc2NC(=O)C2CCCCC2)cc1 | 3.73 | 32% | 
O=C(Nc1cccc(-c2ccccc2)c1)c1ccccc1NC(=O)C1CCCCC1 |  | inactive | EC50 [1]: Not Active
O=C(Nc1cccc(S(=O)(=O)C(F)(F)F)c1)c1ccccc1NC(=O)C1CCCCC1 | 5.97 | 87% | 
O=C(Nc1ccccc1)c1ccccc1NC(=O)C1CCCCC1 | 4.03 | 57% | 
COc1ccccc1C(=O)Nc1ccccc1C(=O)N(C)c1cccc(C(F)(F)F)c1 | 4.53 | 77% | 
CCOc1ccccc1C(=O)Nc1ncccc1C(=O)Nc1cccc(S(=O)(=O)C(F)(F)F)c1 | 5.78 | 98% | solubility kinetic [4]: < 1000 µM; t1/2 [5]: 19.85 min
Cc1ccccc1NC(=O)c1ccccc1NC(=O)C1CCCCC1 |  | inactive | EC50 [1]: Not Active
O=C(Nc1cccc(C(F)(F)F)c1)c1ccccc1NC(=O)C1CCCCCC1 | 5.68 | 75% | 
CCC(CC)C(=O)Nc1ccccc1C(=O)Nc1cccc(C(F)(F)F)c1 | 5.28 | 59% | 
CCCCC(=O)Nc1ccccc1C(=O)Nc1cccc(C(F)(F)F)c1 | 5.28 | 94% | 
COc1cccc(NC(=O)c2ccccc2NC(=O)C2CCCCC2)c1 | 4.43 | 74% | 
O=C(Nc1cccc(Cl)c1)c1ccccc1NC(=O)C1CCCCC1 | 5.48 | 89% | 
O=C(Nc1cccc(-c2ccccc2C(F)(F)F)c1)c1ccccc1NC(=O)C1CCCCC1 | 5.58 | 74% | 
O=C(NCc1cccc(C(F)(F)F)c1)c1ccccc1NC(=O)C1CCCCC1 |  | inactive | EC50 [1]: Not Active

From ChEMBL document CHEMBL4152336, “Optimization of the first small-molecule relaxin/insulin-like family peptide receptor (RXFP1) agonists: Activation results in an antifibrotic gene expression profile” (Eur J Med Chem, 2018)
